One data set concerns P000302 (Healthy cells). The data set can be described thus: In vitro dose response in healthy astrocytes (control model system).
The conditions of data set [1]: cited from earlier work.
The next data set deals with P008480 (Ependymoma). The data set can be described thus: In vitro efficacy, dose response in ependymoma culture.
In another data set the test system is P002306 (DMG). The data set can be described thus: In vitro efficacy, dose response in DMG neurospheres P002306.
The subject of the next data set is RA055 (DMG). Briefly: In vitro efficacy, dose response in DMG neurospheres RA055.
Data set [2] concerns U-87-MG human glioblastoma cell line. The data set can be described thus: U-87-MG cell proliferation (Incucyte confluency). In kind it is cell-based. Conditions: 72 hours with drug, 5-FU concentration, read-out: IC50, inhibiting cell proliferation. How it is done:
U-87-MG cells are maintained in DMEM (high glucose)+10% FCS
• 96-well 2D format (triplicate wells per drug concentration). • Cells seeded at 10,000 cells/well>24 hours incubation. • Drugs added 24 hours later and cells incubated a further 72 hours. • Cells imaged every 6 hours using Incucyte ZOOM for cell proliferation (confluency measurement) and evidence of cell death.

The subject of a further data set is DIPG-7 (DMG). Briefly: In vitro efficacy, dose response in DMG neurospheres DIPG-7. Conditions: Homo sapiens.

The structures appear in SMILES notation. Where only a bound is given, the exact number is not on record here.

Protocol for DIPG-7 (DMG): (§1) Assessment of in vitro activity of the composition used in the methods of the present disclosure was undertaken in patient-derived Diffuse Midline Glioma (DMG) neurospheres.
(§2) In particular, activity of the composition against human DMG cells was compared to that of 5-FU, a combination of 5-FU and FA, or a media control.
(§3) The composition used in the methods of the present disclosure was tested at a 5-FU to FA (Leucovorin) ratio of 15:1 (termed ‘Deflexifol’), and compared to 5-FU as a single agent (‘5-FU’); FA (Leucovorin) as a single agent (‘Leucovorin’); or a combination of 5-FU and FA (Leucovorin) (‘5-FU+Leucovorin’).
(§4) The tested concentrations were selected with reference to the clinical maximum tolerated plasma concentration of 5-FU (530 μM), as detailed in Table 5.
(§5) Screening was conducted in a 96-well format, with N=4 curves, using: • three different DMG cell lines: P002306, DIPG-7 and RA055 • one ependymoma culture and • one set of healthy astrocytes (control model system).
Protocol for P000302 (Healthy cells): as §3, §5
Protocol for P002306 (DMG): as §1, §2, §3, §4, §5
Protocol for P008480 (Ependymoma): as §3, §5
Protocol for RA055 (DMG): as §1, §2, §3, §4, §5

As for `O=c1[nH]cc(F)c(=O)[nH]1` [5-FU, 5-fluoro-2,4 (1H,3H)-pyrimidinedione], the IC50 is approximately 500 µM in the data set with P000302 (Healthy cells) (Homo sapiens, Astrocyte); more than 500 µM in the data set on P008480 (Ependymoma) (Homo sapiens); approximately 1.9 µM with P002306 (DMG) (Homo sapiens); approximately 200 µM in the data set on RA055 (DMG) (Homo sapiens); 120 µM in data set [2]; approximately 22.3 µM in the data set on DIPG-7 (DMG). Further, the “AUC (dose response)” value with P000302 (Healthy cells) (P000302 (Healthy cells)) is listed as “AUC: 294.3”; in the data set with P008480 (Ependymoma) (P008480 (Ependymoma)) it was “AUC: 373.2”; with P002306 (DMG) (P002306 (DMG)), “AUC: 171.4”; in the data set with RA055 (DMG) (RA055 (DMG)), “AUC: 332.6”. In addition, in data set [1] (human, in vivo), the “clinical maximum tolerated plasma concentration” value is 530 µM. Further, the “human tolerability of i.v.b. administration” value in data set [1] (i.v.b.) is “approximately 500 mg/mg^2”.
